The record followed here is patent US8324267B2, “Kinase inhibitors and the use thereof” (Forschungzentrum Karlsruhe GmbH, priority 2001, dated 2012).

Broadly, the inhibition is the drop in the measured response relative to a control, in per cent.

One experiment concerns the target EGFR (Homo sapiens, UniProt P00533). The experiment can be described thus: In vitro tyrosine kinase assay (ELISA, GST kinase, polyGlu,Tyr 4:1 acceptor). Type of experiment: biochemical. The following applies: read-out: inhibition (−) or stimulation (+) of kinase activity relative to the control; for inhibition at 1 µg/mL: inhibitor 1 μg/ml; for inhibition at 10 µg/mL: inhibitor 10 μg/ml. As for the experimental part:
(§1) The inhibition of various receptor tyrosine kinases in vitro by MAE87, MAE106 and MAZ51 was investigated. The inhibitors were investigated in 2 different concentrations (1 μg/ml and 10 μg/ml). The inhibition is stated in %. “+”=stimulation of kinase activity relative to the control,
(§2) “−”=inhibition of kinase activity relative to the control.
(§3) The activity of the RTK inhibitors were determined with the aid of an ELISA. In this assay, the corresponding kinases were employed as recombinant GST fusion proteins (glutathione S-transferase). Synthetic polyGlu, Tyr 4:1 is used as acceptor. The ability of different concentrations of the test substances to inhibit the RTK-mediated phosphorylation of the abovementioned acceptor was assessed. All the tests were carried out in duplicate.
(§4) ELISA plates were coated with 0.2 mg/ml of polyGlu, Tyr 4:1 in 100 mM bicarbonate buffer (pH 9.6) overnight. This solution was removed and the microtiter plates were washed twice with TBS buffer (10 mM Tris-HCl, pH 8.1, 100 mM NaCl) and then blocked with 5% BSA/TBS for 30 min. 50 μl of test substance (2 or 20 μg/ml in 10% DMSO), 25 μl of GST kinase in 4× kinase buffer (200 mM HEPES, 100 mM NaCl, 80 μM Na3VO4 and 0.04% BSA) were introduced. The reaction was started by adding 25 μl of 160 μM ATP (in 40 mM MnCl2) as substrate of the kinases. The final concentrations of the test compounds is thus 1 or 10 μg/ml in 5% DMSO. The GST fusion proteins were employed in the following concentrations. VEGFR-2 50 NG/well, VEGFR-3 300 ng/well, Tie2 300 ng/well, EGFR 50 ng/well, ErbB2 200 ng/well, IGF-1R 50 ng/well, FGFR1 200 ng/well. The reaction mixture was incubated at 30° C. for 90 min. The kinase reaction was stopped by adding 50 μl of 30 mM EDTA/well. The microtiter plates were washed twice with 0.05% Tween20/TBS. Anti-phosphotyrosine antibody (1:500) was added in 0.05% Tween20/TBS (with 0.5% BSA, 0.025% skimmed milk powder and 100 μM Na3VO4) and incubated at 37° C. for 1 h. The microtiter plates were washed three times with 0.05% Tween20/TBS. The HRP-conjugated detection autibody (1:1000) was added in 0.05% Tween20/TBS (with 0.5% BSA, 0.025% skimmed milk powder and 100 μM Na3VO4) and incubated at 37° C. for 1 h. The microtiter plates were washed three times with 0.05% Tween20/TBS. ABTS (2,2′-azino-di-(3-ethylbenz-thiazoline-6-sulfonate)) substrate (Roche Diagnostics GmbH, Mannheim) was added. The OD was determined at 405 nm using an ELISA reader.
On the technique in general: ELISA stands for enzyme-linked immunosorbent assay.

The target in a further experiment is ErbB2 (Homo sapiens, UniProt P04626). The experiment is described as above. The following applies: read-out: inhibition (−) or stimulation (+) of kinase activity relative to the control; for inhibition at 1 µg/mL: inhibitor 1 μg/ml; for inhibition at 10 µg/mL: inhibitor 10 μg/ml. Type of experiment: biochemical. Here is the method: as §1, §2, §3, §4
A further experiment addresses FGFR1 (Homo sapiens, UniProt P11362). The experiment is described as above. Type of experiment: biochemical. The conditions noted are these: read-out: inhibition (−) or stimulation (+) of kinase activity relative to the control; for inhibition at 1 µg/mL: inhibitor 1 μg/ml; for inhibition at 10 µg/mL: inhibitor 10 μg/ml. Here is the method: as §1, §2, §3, §4
Another experiment has as its target IGF1R (Homo sapiens, UniProt P08069). The description is as above. Type of experiment: biochemical. The conditions noted are these: read-out: inhibition (−) or stimulation (+) of kinase activity relative to the control; for inhibition at 1 µg/mL: inhibitor 1 μg/ml; for inhibition at 10 µg/mL: inhibitor 10 μg/ml. As for the experimental part: as §1, §2, §3, §4

A further experiment concerns the target Tie2 (Homo sapiens, UniProt Q02763). The description is as above. In kind it is biochemical. The following applies: read-out: inhibition (−) or stimulation (+) of kinase activity relative to the control; for inhibition at 1 µg/mL: inhibitor 1 μg/ml; for inhibition at 10 µg/mL: inhibitor 10 μg/ml. Here is the method:
as §1, §2, §3, §4

For another experiment, the target named is VEGFR-2 (Homo sapiens, UniProt P35968). The experiment is described as above. In kind it is biochemical. The following applies: read-out: inhibition (−) or stimulation (+) of kinase activity relative to the control; for inhibition at 1 µg/mL: inhibitor 1 μg/ml; for inhibition at 10 µg/mL: inhibitor 10 μg/ml. As for the experimental part: as §1, §2, §3, §4

The target of the next experiment is VEGFR-3 (Homo sapiens, UniProt P35916). The description is as above. The following applies: read-out: inhibition (−) or stimulation (+) of kinase activity relative to the control; for inhibition at 1 µg/mL: inhibitor 1 μg/ml; for inhibition at 10 µg/mL: inhibitor 10 μg/ml. Type of experiment: biochemical. Here is the method:
as §1, §2, §3, §4

Experiment [1] relates to Human umbilical vein endothelial cells (HUVEC). Briefly: Endothelial cell proliferation, 3H-thymidine incorporation. In kind it is cell-based. The following applies: 24 h, FIG. 2. Here is the method: Human umbilical vein endothelial cells (HUVEC) underwent serum-starved cultivation for 24 h. The cells were then preincubated with the appropriate compounds for 2 h and subsequently cultivated in the presence of the inhibitors with VEGF (MAE87) or bFGF (MAE106, MAZ51) for a further 24 h. The cells were then incubated with ^3H-thymidine. The amount of radioactivity incorporated into the cellular DNA was measured. All the experiments were carried out in triplicate.
HUVE cells were seeded in 100 μl/well (10^5 cells/ml) in 96-well culture plates and left to rest overnight. The cells were then starved with 50 μl of serum-free medium/well for 24 h. Subsequently, 50 μl of various concentrations of the test substances in serum-free medium (contains 2% DMSO) were added and incubated at 37° C. for 2 h. The medium containing the test compounds was removed and replaced by 50 μl of fresh medium with bFGF (12.5 ng/ml) or VEGF (100 ng/ml). Fresh dilutions of the doubly concentrated test substances in serum-free medium with 2% DMSO were added to the cells in 50 μl/well. The final concentration of DMSO was always 1%. After 24 h, ^3H-thymidine (1 μCi/well) was added, and the cells were incubated for a further 4-6 h. To analyze the incorporated radioactivity, the cells were trypsinized for 30 min and harvested with the aid of a harvester 96 cell (Tomtec) and fixed on a glass fiber membrane filter. The immobilized radioactivity was quantified with the aid of a MicroBeta TriLux liquid scintillation luminescence counter. The result is depicted in FIG. 2.
FIG. 2: Measurement of the (^3H)-thymidine incorporation into human endothelial cells (HUVEC) as a function of the concentration of inhibitors employed (MAE87, MAE106 and MAZ51). The inhibition of cell proliferation by MAE87, MAE106 and MAZ51 is dose-dependent in this case.
On the technique in general: Incorporation of labelled thymidine or its analogues reports DNA synthesis.

IGF1R, sequence (P08069 31-1367): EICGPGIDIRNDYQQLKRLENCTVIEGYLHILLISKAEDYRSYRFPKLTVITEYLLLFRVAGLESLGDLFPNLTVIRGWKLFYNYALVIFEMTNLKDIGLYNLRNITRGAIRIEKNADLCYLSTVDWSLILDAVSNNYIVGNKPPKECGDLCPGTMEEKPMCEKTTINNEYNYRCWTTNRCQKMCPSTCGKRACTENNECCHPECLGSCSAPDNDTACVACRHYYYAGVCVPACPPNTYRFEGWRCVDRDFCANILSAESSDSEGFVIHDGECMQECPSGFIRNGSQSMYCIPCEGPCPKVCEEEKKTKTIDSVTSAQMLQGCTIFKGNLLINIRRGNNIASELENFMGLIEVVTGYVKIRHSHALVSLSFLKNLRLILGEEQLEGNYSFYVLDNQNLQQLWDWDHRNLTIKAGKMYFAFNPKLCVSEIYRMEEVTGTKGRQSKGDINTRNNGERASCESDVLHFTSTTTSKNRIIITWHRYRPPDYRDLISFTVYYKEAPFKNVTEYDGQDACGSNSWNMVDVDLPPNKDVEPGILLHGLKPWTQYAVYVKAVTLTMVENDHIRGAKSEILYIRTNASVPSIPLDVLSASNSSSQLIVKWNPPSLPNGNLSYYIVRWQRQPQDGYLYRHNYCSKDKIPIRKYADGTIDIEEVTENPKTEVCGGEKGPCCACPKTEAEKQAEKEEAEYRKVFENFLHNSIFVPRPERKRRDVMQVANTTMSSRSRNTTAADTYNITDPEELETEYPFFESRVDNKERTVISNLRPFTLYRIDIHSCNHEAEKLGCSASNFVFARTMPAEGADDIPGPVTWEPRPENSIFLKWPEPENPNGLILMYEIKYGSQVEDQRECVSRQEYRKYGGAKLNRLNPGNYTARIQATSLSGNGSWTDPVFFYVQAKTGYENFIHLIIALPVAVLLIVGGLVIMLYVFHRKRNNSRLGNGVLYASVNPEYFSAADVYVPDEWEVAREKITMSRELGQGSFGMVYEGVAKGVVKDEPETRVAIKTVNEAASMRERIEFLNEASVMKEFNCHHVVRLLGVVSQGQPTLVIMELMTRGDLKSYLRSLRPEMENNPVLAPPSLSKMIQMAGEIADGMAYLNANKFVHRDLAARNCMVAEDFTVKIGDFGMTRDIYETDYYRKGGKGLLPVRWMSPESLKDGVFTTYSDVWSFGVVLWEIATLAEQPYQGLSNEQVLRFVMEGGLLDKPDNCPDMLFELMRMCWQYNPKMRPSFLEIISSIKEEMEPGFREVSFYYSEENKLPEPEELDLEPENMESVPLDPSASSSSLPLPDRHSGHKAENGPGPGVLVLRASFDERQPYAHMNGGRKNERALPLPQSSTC
FGFR1, sequence (P11362 22-822): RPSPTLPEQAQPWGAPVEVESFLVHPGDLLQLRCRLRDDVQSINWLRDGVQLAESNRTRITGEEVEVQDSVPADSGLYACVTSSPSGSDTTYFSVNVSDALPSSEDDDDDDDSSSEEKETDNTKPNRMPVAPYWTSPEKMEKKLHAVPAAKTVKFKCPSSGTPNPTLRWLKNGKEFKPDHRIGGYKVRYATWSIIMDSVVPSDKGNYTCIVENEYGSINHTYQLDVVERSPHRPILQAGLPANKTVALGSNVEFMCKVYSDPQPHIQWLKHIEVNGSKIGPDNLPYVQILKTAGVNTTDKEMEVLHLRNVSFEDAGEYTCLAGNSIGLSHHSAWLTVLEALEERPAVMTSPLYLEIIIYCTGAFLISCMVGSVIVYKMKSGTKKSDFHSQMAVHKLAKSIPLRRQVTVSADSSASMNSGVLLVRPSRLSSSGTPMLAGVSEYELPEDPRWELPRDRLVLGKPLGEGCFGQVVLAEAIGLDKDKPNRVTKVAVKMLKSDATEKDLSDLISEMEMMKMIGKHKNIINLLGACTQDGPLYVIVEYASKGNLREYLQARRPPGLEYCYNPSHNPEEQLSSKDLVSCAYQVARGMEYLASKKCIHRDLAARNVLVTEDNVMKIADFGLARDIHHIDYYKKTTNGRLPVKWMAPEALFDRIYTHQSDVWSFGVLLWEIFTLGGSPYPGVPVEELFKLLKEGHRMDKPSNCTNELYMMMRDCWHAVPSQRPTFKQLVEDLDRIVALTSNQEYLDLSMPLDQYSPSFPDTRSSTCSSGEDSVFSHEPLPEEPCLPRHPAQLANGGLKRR
VEGFR-3, sequence (P35916 25-1363): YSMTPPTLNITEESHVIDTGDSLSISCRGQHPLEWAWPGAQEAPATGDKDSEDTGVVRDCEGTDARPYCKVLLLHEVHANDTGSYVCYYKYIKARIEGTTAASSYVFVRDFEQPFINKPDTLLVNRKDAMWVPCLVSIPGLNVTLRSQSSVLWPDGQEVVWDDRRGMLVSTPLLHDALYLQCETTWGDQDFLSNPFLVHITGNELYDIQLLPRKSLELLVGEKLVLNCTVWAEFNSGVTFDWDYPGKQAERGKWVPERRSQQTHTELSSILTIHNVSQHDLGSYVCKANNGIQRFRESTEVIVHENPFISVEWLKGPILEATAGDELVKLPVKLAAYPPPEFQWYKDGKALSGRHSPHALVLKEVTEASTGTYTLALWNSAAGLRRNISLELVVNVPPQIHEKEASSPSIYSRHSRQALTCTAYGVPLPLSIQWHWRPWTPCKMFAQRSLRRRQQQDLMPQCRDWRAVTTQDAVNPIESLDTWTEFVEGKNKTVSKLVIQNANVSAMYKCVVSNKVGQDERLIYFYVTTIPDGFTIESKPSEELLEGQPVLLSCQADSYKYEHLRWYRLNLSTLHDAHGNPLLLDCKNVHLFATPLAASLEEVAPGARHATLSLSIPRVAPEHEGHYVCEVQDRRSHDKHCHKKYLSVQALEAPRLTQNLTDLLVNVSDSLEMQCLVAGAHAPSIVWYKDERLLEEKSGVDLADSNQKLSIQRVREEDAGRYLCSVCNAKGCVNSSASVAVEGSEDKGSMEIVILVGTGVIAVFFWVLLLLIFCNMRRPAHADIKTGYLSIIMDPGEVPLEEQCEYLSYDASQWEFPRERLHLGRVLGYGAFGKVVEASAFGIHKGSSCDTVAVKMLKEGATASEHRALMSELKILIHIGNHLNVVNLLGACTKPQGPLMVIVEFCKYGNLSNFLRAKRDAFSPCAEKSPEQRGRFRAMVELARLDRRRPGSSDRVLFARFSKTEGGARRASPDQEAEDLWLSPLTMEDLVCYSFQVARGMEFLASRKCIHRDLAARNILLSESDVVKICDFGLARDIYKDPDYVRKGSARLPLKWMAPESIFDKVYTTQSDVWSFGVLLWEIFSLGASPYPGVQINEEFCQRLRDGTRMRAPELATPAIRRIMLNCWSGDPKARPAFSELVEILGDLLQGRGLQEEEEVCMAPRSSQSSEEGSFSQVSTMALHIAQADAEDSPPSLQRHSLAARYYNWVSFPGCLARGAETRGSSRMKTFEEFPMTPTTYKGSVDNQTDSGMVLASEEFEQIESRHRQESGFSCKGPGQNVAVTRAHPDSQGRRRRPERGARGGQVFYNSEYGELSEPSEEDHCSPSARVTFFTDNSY
EGFR, sequence (P00533 25-1210): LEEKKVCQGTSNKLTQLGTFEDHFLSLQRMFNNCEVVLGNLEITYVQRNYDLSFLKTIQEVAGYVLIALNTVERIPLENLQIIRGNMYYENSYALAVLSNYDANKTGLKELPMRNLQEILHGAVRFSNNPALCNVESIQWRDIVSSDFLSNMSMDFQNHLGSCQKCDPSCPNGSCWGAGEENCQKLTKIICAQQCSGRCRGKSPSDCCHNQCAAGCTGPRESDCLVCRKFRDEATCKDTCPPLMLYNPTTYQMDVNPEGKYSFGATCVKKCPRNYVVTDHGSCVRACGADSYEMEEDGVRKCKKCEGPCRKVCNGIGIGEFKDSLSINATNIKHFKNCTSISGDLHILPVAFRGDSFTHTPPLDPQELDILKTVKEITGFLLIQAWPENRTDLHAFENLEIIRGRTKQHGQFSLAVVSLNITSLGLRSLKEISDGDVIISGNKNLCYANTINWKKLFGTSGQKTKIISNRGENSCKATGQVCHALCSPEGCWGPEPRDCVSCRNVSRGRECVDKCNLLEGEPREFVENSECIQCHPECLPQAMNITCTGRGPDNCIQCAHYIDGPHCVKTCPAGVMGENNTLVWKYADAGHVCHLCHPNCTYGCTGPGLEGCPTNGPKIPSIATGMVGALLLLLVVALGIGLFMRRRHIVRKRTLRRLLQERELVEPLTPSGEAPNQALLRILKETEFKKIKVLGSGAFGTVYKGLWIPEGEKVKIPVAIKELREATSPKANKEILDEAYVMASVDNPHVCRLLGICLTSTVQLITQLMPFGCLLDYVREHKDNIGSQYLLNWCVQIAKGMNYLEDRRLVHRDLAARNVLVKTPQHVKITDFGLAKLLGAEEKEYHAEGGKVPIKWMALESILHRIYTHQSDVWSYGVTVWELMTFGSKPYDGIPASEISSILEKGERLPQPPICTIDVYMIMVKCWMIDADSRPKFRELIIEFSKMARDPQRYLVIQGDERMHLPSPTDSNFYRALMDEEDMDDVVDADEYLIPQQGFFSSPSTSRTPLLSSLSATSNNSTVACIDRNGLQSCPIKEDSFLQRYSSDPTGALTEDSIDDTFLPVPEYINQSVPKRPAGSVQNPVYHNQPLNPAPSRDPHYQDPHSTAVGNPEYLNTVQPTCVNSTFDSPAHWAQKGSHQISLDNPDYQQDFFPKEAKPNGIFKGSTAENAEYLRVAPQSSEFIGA

With `O=C1Nc2ccccc2C1=Cc1ccc(O)cc1O` [MAE87, 3-(2,4-Dihydroxybenzylidene)-1,3-dihydroindol-2-one], the inhibition at 1 µg/mL on EGFR is 70%; on ErbB2, 45%; on FGFR1 it was 50%; at IGF1R it was 63%; at Tie2 it was -1%; on VEGFR-2, 46%. Besides, on VEGFR-3, the inhibition at 1 µg/mL stood at 9%. The inhibition at 10 µg/mL on EGFR was 86%; on ErbB2, 84%; on FGFR1, 94%; at IGF1R, 94%; on Tie2, 65%; on VEGFR-2, 77%. In addition, the inhibition at 10 µg/mL on VEGFR-3 came out at 74%. Besides, in experiment [1] (VEGF stimulated), the “inhibition of cell proliferation (3H-thymidine incorporation)” value (from here on “inhibition of cell proliferation”) is on record as “dose-dependent”.
As for `COc1ccc(C=C2C(=O)Nc3ccccc32)cc1F` [MAE106, 3-(3-Fluoro-4-methoxybenzylidene)-1,3-dihydroindole-2-one], the inhibition at 1 µg/mL at EGFR is 5%; on ErbB2, -4%; at FGFR1 it was -5%; at IGF1R it was 10%; on Tie2 it was 5%; on VEGFR-2, -21%. In addition, on VEGFR-3, the inhibition at 1 µg/mL was -1%. In addition, the inhibition at 10 µg/mL came to 64% on EGFR; 41% at ErbB2; 1% on FGFR1; 71% on IGF1R; 28% on Tie2; 58% on VEGFR-2. Further, on VEGFR-3, the inhibition at 10 µg/mL was found to be 57%. For the same molecule, in experiment [1] (bFGF stimulated), the “inhibition of cell proliferation” value is listed as “dose-dependent”.
Consider `CN(C)c1ccc(C=C2C(=O)Nc3ccccc32)c2ccccc12` [MAZ51, 3-(4-Dimethylaminonaphthalen-1-ylmethylene)-1,3-dihydroindol-2-one], for which the inhibition at 1 µg/mL was 25% at EGFR; 11% on ErbB2; -1% at FGFR1; 10% on IGF1R; 7% on Tie2; 8% on VEGFR-2. Further, the inhibition at 1 µg/mL at VEGFR-3 stood at 4%. Besides, the inhibition at 10 µg/mL on EGFR turned out to be 58%; on ErbB2, 39%; on FGFR1, 5%; at IGF1R it was 68%; on Tie2, 27%; at VEGFR-2, 74%. Further, the inhibition at 10 µg/mL at VEGFR-3 turned out to be 35%. Further, the “inhibition of cell proliferation” value in experiment [1] (bFGF stimulated) is reported as “dose-dependent”.
